{"source": "PubChem BioAssay (NCI)", "test_in_all_cases": "inhibition of tumour cell growth, NCI panel, 48 h", "key": {"U251 CNS": {"tested_on": "U251 CNS"}, "IGROV1 ovarian": {"tested_on": "IGROV1 ovarian"}, "SK-MEL-28 melanoma": {"tested_on": "SK-MEL-28 melanoma"}, "LOX IMVI melanoma": {"tested_on": "LOX IMVI melanoma"}, "RPMI-8226 leukemia": {"tested_on": "RPMI-8226 leukemia"}, "SNB-19 CNS": {"tested_on": "SNB-19 CNS"}, "BT-549 breast": {"tested_on": "BT-549 breast"}, "MALME-3M melanoma": {"tested_on": "MALME-3M melanoma"}, "KM12 colon": {"tested_on": "KM12 colon"}, "MCF7 breast": {"tested_on": "MCF7 breast"}, "HCT-116 colon": {"tested_on": "HCT-116 colon"}, "OVCAR-8 ovarian": {"tested_on": "OVCAR-8 ovarian"}, "MOLT-4 leukemia": {"tested_on": "MOLT-4 leukemia"}, "COLO 205 colon": {"tested_on": "COLO 205 colon"}, "RXF 393 renal": {"tested_on": "RXF 393 renal"}, "HCT-15 colon": {"tested_on": "HCT-15 colon"}, "TK-10 renal": {"tested_on": "TK-10 renal"}, "HCC-2998 colon": {"tested_on": "HCC-2998 colon"}, "UACC-62 melanoma": {"tested_on": "UACC-62 melanoma"}, "OVCAR-3 ovarian": {"tested_on": "OVCAR-3 ovarian"}, "MDA-MB-435": {"tested_on": "MDA-MB-435"}, "DU-145 prostate": {"tested_on": "DU-145 prostate"}, "SR leukemia": {"tested_on": "SR leukemia"}, "NCI-H23 lung": {"tested_on": "NCI-H23 lung"}, "SF-268 CNS": {"tested_on": "SF-268 CNS"}, "K-562 leukemia": {"tested_on": "K-562 leukemia"}, "PC-3 prostate": {"tested_on": "PC-3 prostate"}, "NCI/ADR-RES ovarian": {"tested_on": "NCI/ADR-RES ovarian"}, "T-47D breast": {"tested_on": "T-47D breast"}, "OVCAR-5 ovarian": {"tested_on": "OVCAR-5 ovarian"}, "CAKI-1 renal": {"tested_on": "CAKI-1 renal"}, "NCI-H460 lung": {"tested_on": "NCI-H460 lung"}, "EKVX NSCLC": {"tested_on": "EKVX NSCLC"}, "SK-OV-3 ovarian": {"tested_on": "SK-OV-3 ovarian"}, "A549 NSCLC": {"tested_on": "A549 NSCLC"}, "HT29 colon": {"tested_on": "HT29 colon"}, "ACHN renal": {"tested_on": "ACHN renal"}, "SF-295 CNS": {"tested_on": "SF-295 CNS"}, "HOP-62 NSCLC": {"tested_on": "HOP-62 NSCLC"}, "HL-60(TB) leukemia": {"tested_on": "HL-60(TB) leukemia"}, "UO-31 renal": {"tested_on": "UO-31 renal"}, "SF-539 CNS": {"tested_on": "SF-539 CNS"}, "OVCAR-4 ovarian": {"tested_on": "OVCAR-4 ovarian"}, "NCI-H522 lung": {"tested_on": "NCI-H522 lung"}, "UACC-257 melanoma": {"tested_on": "UACC-257 melanoma"}, "786-0 renal": {"tested_on": "786-0 renal"}, "SK-MEL-2 melanoma": {"tested_on": "SK-MEL-2 melanoma"}, "M14 melanoma": {"tested_on": "M14 melanoma"}}, "note": "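How tested: cells in 96-well plates exposed to compound for 48 hours at five concentrations. Abbreviation: GI50, concentration required for 50% inhibition of growth. Definition used: TGI = concentration required for complete inhibition of growth.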"}
{"smiles": "c1cc2c(s1)SSSSS2", "values": [{"measurement": "GI50", "setting": "U251 CNS", "value": 17.6, "unit": "µM"}, {"measurement": "TGI", "setting": "U251 CNS", "value": 39.6, "unit": "µM"}, {"measurement": "GI50", "setting": "IGROV1 ovarian", "value": 19, "unit": "µM"}, {"measurement": "TGI", "setting": "IGROV1 ovarian", "value": 43.1, "unit": "µM"}, {"measurement": "GI50", "setting": "SK-MEL-28 melanoma", "value": 23, "unit": "µM"}, {"measurement": "TGI", "setting": "SK-MEL-28 melanoma", "value": 41.9, "unit": "µM"}, {"measurement": "GI50", "setting": "LOX IMVI melanoma", "value": 11.9, "unit": "µM"}, {"measurement": "TGI", "setting": "LOX IMVI melanoma", "value": 40.3, "unit": "µM"}, {"measurement": "GI50", "setting": "RPMI-8226 leukemia", "value": 7.06, "unit": "µM"}, {"measurement": "TGI", "setting": "RPMI-8226 leukemia", "value": 29.4, "unit": "µM"}, {"measurement": "GI50", "setting": "SNB-19 CNS", "value": 22.9, "unit": "µM"}, {"measurement": "TGI", "setting": "SNB-19 CNS", "value": 47, "unit": "µM"}, {"measurement": "GI50", "setting": "BT-549 breast", "value": 33.8, "unit": "µM"}, {"measurement": "TGI", "setting": "BT-549 breast", "value": 85.9, "unit": "µM"}, {"measurement": "GI50", "setting": "MALME-3M melanoma", "value": 17.1, "unit": "µM"}, {"measurement": "TGI", "setting": "MALME-3M melanoma", "value": 40.2, "unit": "µM"}, {"measurement": "GI50", "setting": "KM12 colon", "value": 19.3, "unit": "µM"}, {"measurement": "TGI", "setting": "KM12 colon", "value": 38.1, "unit": "µM"}, {"measurement": "GI50", "setting": "MCF7 breast", "value": 16.4, "unit": "µM"}, {"measurement": "TGI", "setting": "MCF7 breast", "value": 35, "unit": "µM"}, {"measurement": "GI50", "setting": "HCT-116 colon", "value": 9.06, "unit": "µM"}, {"measurement": "TGI", "setting": "HCT-116 colon", "value": 21.2, "unit": "µM"}, {"measurement": "GI50", "setting": "OVCAR-8 ovarian", "value": 36.3, "unit": "µM"}, {"measurement": "TGI", "setting": "OVCAR-8 ovarian", "value": "> 100", "unit": "µM"}, {"measurement": "GI50", "setting": "MOLT-4 leukemia", "value": 18.8, "unit": "µM"}, {"measurement": "TGI", "setting": "MOLT-4 leukemia", "value": "> 100", "unit": "µM"}, {"measurement": "GI50", "setting": "COLO 205 colon", "value": 17.6, "unit": "µM"}, {"measurement": "TGI", "setting": "COLO 205 colon", "value": 46.6, "unit": "µM"}, {"measurement": "GI50", "setting": "RXF 393 renal", "value": 18.4, "unit": "µM"}, {"measurement": "TGI", "setting": "RXF 393 renal", "value": 41.5, "unit": "µM"}, {"measurement": "GI50", "setting": "HCT-15 colon", "value": 15.8, "unit": "µM"}, {"measurement": "TGI", "setting": "HCT-15 colon", "value": 85.9, "unit": "µM"}, {"measurement": "GI50", "setting": "TK-10 renal", "value": 16.7, "unit": "µM"}, {"measurement": "TGI", "setting": "TK-10 renal", "value": 33.5, "unit": "µM"}, {"measurement": "GI50", "setting": "HCC-2998 colon", "value": 24, "unit": "µM"}, {"measurement": "TGI", "setting": "HCC-2998 colon", "value": 39.9, "unit": "µM"}, {"measurement": "GI50", "setting": "UACC-62 melanoma", "value": 13.8, "unit": "µM"}, {"measurement": "TGI", "setting": "UACC-62 melanoma", "value": 28.1, "unit": "µM"}, {"measurement": "GI50", "setting": "OVCAR-3 ovarian", "value": 18, "unit": "µM"}, {"measurement": "TGI", "setting": "OVCAR-3 ovarian", "value": 34.5, "unit": "µM"}, {"measurement": "GI50", "setting": "MDA-MB-435", "value": 18.9, "unit": "µM"}, {"measurement": "TGI", "setting": "MDA-MB-435", "value": 35.8, "unit": "µM"}, {"measurement": "GI50", "setting": "DU-145 prostate", "value": 17.1, "unit": "µM"}, {"measurement": "TGI", "setting": "DU-145 prostate", "value": 34.1, "unit": "µM"}, {"measurement": "GI50", "setting": "SR leukemia", "value": 3.17, "unit": "µM"}, {"measurement": "TGI", "setting": "SR leukemia", "value": 22.8, "unit": "µM"}, {"measurement": "GI50", "setting": "NCI-H23 lung", "value": 14.6, "unit": "µM"}, {"measurement": "TGI", "setting": "NCI-H23 lung", "value": 30.7, "unit": "µM"}, {"measurement": "GI50", "setting": "SF-268 CNS", "value": 19.1, "unit": "µM"}, {"measurement": "TGI", "setting": "SF-268 CNS", "value": 38.6, "unit": "µM"}, {"measurement": "GI50", "setting": "K-562 leukemia", "value": 16.1, "unit": "µM"}, {"measurement": "TGI", "setting": "K-562 leukemia", "value": "> 100", "unit": "µM"}, {"measurement": "GI50", "setting": "PC-3 prostate", "value": 16.5, "unit": "µM"}, {"measurement": "TGI", "setting": "PC-3 prostate", "value": 39.6, "unit": "µM"}, {"measurement": "GI50", "setting": "NCI/ADR-RES ovarian", "value": 22.8, "unit": "µM"}, {"measurement": "TGI", "setting": "NCI/ADR-RES ovarian", "value": 46.4, "unit": "µM"}, {"measurement": "GI50", "setting": "T-47D breast", "value": 13, "unit": "µM"}, {"measurement": "TGI", "setting": "T-47D breast", "value": 32.4, "unit": "µM"}, {"measurement": "GI50", "setting": "OVCAR-5 ovarian", "value": 21.1, "unit": "µM"}, {"measurement": "TGI", "setting": "OVCAR-5 ovarian", "value": 36.6, "unit": "µM"}, {"measurement": "GI50", "setting": "CAKI-1 renal", "value": 17.8, "unit": "µM"}, {"measurement": "TGI", "setting": "CAKI-1 renal", "value": 36.6, "unit": "µM"}, {"measurement": "GI50", "setting": "NCI-H460 lung", "value": 19.9, "unit": "µM"}, {"measurement": "TGI", "setting": "NCI-H460 lung", "value": 42.2, "unit": "µM"}, {"measurement": "GI50", "setting": "EKVX NSCLC", "value": 34.6, "unit": "µM"}, {"measurement": "TGI", "setting": "EKVX NSCLC", "value": 68.2, "unit": "µM"}, {"measurement": "GI50", "setting": "SK-OV-3 ovarian", "value": 34.5, "unit": "µM"}, {"measurement": "TGI", "setting": "SK-OV-3 ovarian", "value": 72.7, "unit": "µM"}, {"measurement": "GI50", "setting": "A549 NSCLC", "value": 31.8, "unit": "µM"}, {"measurement": "TGI", "setting": "A549 NSCLC", "value": "> 100", "unit": "µM"}, {"measurement": "GI50", "setting": "HT29 colon", "value": 23.3, "unit": "µM"}, {"measurement": "TGI", "setting": "HT29 colon", "value": 41.4, "unit": "µM"}, {"measurement": "GI50", "setting": "ACHN renal", "value": 15.5, "unit": "µM"}, {"measurement": "TGI", "setting": "ACHN renal", "value": 31.7, "unit": "µM"}, {"measurement": "GI50", "setting": "SF-295 CNS", "value": 18.3, "unit": "µM"}, {"measurement": "TGI", "setting": "SF-295 CNS", "value": 36.9, "unit": "µM"}, {"measurement": "GI50", "setting": "HOP-62 NSCLC", "value": 28.2, "unit": "µM"}, {"measurement": "TGI", "setting": "HOP-62 NSCLC", "value": 55.3, "unit": "µM"}, {"measurement": "GI50", "setting": "HL-60(TB) leukemia", "value": 11.8, "unit": "µM"}, {"measurement": "TGI", "setting": "HL-60(TB) leukemia", "value": "> 100", "unit": "µM"}, {"measurement": "GI50", "setting": "UO-31 renal", "value": 17.6, "unit": "µM"}, {"measurement": "TGI", "setting": "UO-31 renal", "value": 33.7, "unit": "µM"}, {"measurement": "GI50", "setting": "SF-539 CNS", "value": 21.7, "unit": "µM"}, {"measurement": "TGI", "setting": "SF-539 CNS", "value": 39.6, "unit": "µM"}, {"measurement": "GI50", "setting": "OVCAR-4 ovarian", "value": 24.2, "unit": "µM"}, {"measurement": "TGI", "setting": "OVCAR-4 ovarian", "value": 46.9, "unit": "µM"}, {"measurement": "GI50", "setting": "NCI-H522 lung", "value": 27.8, "unit": "µM"}, {"measurement": "TGI", "setting": "NCI-H522 lung", "value": 81.8, "unit": "µM"}, {"measurement": "GI50", "setting": "UACC-257 melanoma", "value": 35.2, "unit": "µM"}, {"measurement": "TGI", "setting": "UACC-257 melanoma", "value": "> 100", "unit": "µM"}, {"measurement": "GI50", "setting": "786-0 renal", "value": 14.9, "unit": "µM"}, {"measurement": "TGI", "setting": "786-0 renal", "value": 29.1, "unit": "µM"}, {"measurement": "GI50", "setting": "SK-MEL-2 melanoma", "value": 29.3, "unit": "µM"}, {"measurement": "TGI", "setting": "SK-MEL-2 melanoma", "value": "> 100", "unit": "µM"}, {"measurement": "GI50", "setting": "M14 melanoma", "value": 11.2, "unit": "µM"}, {"measurement": "TGI", "setting": "M14 melanoma", "value": 29.4, "unit": "µM"}]}
